Assay results taken from ChEMBL document CHEMBL1158231, “Antiviral sulfated steroids from the ophiuroid Ophioplocus januarii” (J Nat Prod, 1996).

Key:
Junin virus [1] = experiment: Antiviral activity against Junin virus IV 4454 infected african green monkey Vero cells assessed as reduction of virus plaque formation at 5 ug/mL; format: functional, Mammarenavirus juninense; parameters: scale not given: the % may be the effect or the level left
Vero [2] = experiment: Cytotoxicity against african green monkey Vero cells at 20 ug/mL after 7 days by trypan blue exclusion method; format: cell-based; settings: chlorocebus sabaeus, 168 h
[3] = system: Respiratory syncytial virus; experiment: Antiviral activity against RSV Long infected human Hep2 cells assessed as inhibition of viral-induced cytopathic effect at 40 ug/mL; format: functional; settings: HEp-2
Poliovirus 3 [4] = experiment: Antiviral activity against human poliovirus 3 Sabin infected african green monkey Vero cells assessed as reduction of virus plaque formation at 40 ug/mL; format: functional; parameters: scale not given: the % may be the effect or the level left
Junin virus [5] = experiment: Antiviral activity against Junin virus IV 4454 infected african green monkey Vero cells assessed as reduction of virus plaque formation at 20 ug/mL; format: functional, Mammarenavirus juninense; parameters: scale not given: the % may be the effect or the level left
Junin virus [6] = experiment: Antiviral activity against Junin virus IV 4454 infected african green monkey Vero cells assessed as reduction of virus plaque formation at 10 ug/mL; format: functional, Mammarenavirus juninense; parameters: scale not given: the % may be the effect or the level left
Vero [7] = experiment: Cytotoxicity against african green monkey Vero cells at 5 ug/mL after 7 days by trypan blue exclusion method; format: cell-based; settings: chlorocebus sabaeus, 168 h
Poliovirus 3 [8] = experiment: Antiviral activity against human poliovirus 3 Sabin infected african green monkey Vero cells assessed as reduction of virus plaque formation at 20 ug/mL; format: functional; parameters: scale not given: the % may be the effect or the level left
Human alphaherpesvirus 1 [9] = experiment: Antiviral activity against HSV1 F infected african green monkey Vero cells assessed as reduction of virus plaque formation at 10 ug/mL; format: functional; parameters: scale not given: the % may be the effect or the level left
[10] = Cytotoxicity against african green monkey Vero cells assessed as cell viability at 40 ug/mL after 7 days by trypan blue exclusion method; format: cell-based; settings: chlorocebus sabaeus, read-out: Activity
[11] = system: Respiratory syncytial virus; experiment: Antiviral activity against RSV Long infected human Hep2 cells assessed as inhibition of viral-induced cytopathic effect at 10 ug/mL; format: functional; settings: HEp-2
[12] = system: Respiratory syncytial virus; experiment: Antiviral activity against RSV Long infected human Hep2 cells assessed as inhibition of viral-induced cytopathic effect at 20 ug/mL; format: functional; settings: HEp-2
Human alphaherpesvirus 1 [13] = experiment: Antiviral activity against HSV1 F infected african green monkey Vero cells assessed as reduction of virus plaque formation at 20 ug/mL; format: functional; parameters: scale not given: the % may be the effect or the level left
Poliovirus 3 [14] = experiment: Antiviral activity against human poliovirus 3 Sabin infected african green monkey Vero cells assessed as reduction of virus plaque formation at 5 ug/mL; format: functional; parameters: scale not given: the % may be the effect or the level left
Human alphaherpesvirus 1 [15] = experiment: Antiviral activity against HSV1 F infected african green monkey Vero cells assessed as reduction of virus plaque formation at 40 ug/mL; format: functional; parameters: scale not given: the % may be the effect or the level left
Junin virus [16] = experiment: Antiviral activity against Junin virus IV 4454 infected african green monkey Vero cells assessed as reduction of virus plaque formation at 40 ug/mL; format: functional, Mammarenavirus juninense; parameters: scale not given: the % may be the effect or the level left
Poliovirus 3 [17] = experiment: Antiviral activity against human poliovirus 3 Sabin infected african green monkey Vero cells assessed as reduction of virus plaque formation at 10 ug/mL; format: functional; parameters: scale not given: the % may be the effect or the level left
Human alphaherpesvirus 1 [18] = experiment: Antiviral activity against HSV1 F infected african green monkey Vero cells assessed as reduction of virus plaque formation at 5 ug/mL; format: functional; parameters: scale not given: the % may be the effect or the level left
Vero [19] = experiment: Cytotoxicity against african green monkey Vero cells at 10 ug/mL after 7 days by trypan blue exclusion method; format: cell-based; settings: chlorocebus sabaeus, 168 h
[20] = system: Respiratory syncytial virus; experiment: Antiviral activity against RSV Long infected human Hep2 cells assessed as inhibition of viral-induced cytopathic effect at 5 ug/mL; format: functional; settings: HEp-2

| Structure (SMILES) | Activity (Junin virus [1]) | Activity (Vero [2]) | inhibition at 40 µg/mL [3] | Activity (Poliovirus 3 [4]) | Activity (Junin virus [5]) | Activity (Junin virus [6]) | Activity (Vero [7]) | Activity (Poliovirus 3 [8]) | Activity (Human alphaherpesvirus 1 [9]) | viability at 168 h, 40 ug/mL [10] | inhibition at 10 µg/mL [11] | inhibition at 20 µg/mL [12] | Activity (Human alphaherpesvirus 1 [13]) | Activity (Poliovirus 3 [14]) | Activity (Human alphaherpesvirus 1 [15]) | Activity (Junin virus [16]) | Activity (Poliovirus 3 [17]) | Activity (Human alphaherpesvirus 1 [18]) | Activity (Vero [19]) | inhibition at 5 µg/mL [20] |
| --- | --- | --- | --- | --- | --- | --- | --- | --- | --- | --- | --- | --- | --- | --- | --- | --- | --- | --- | --- | --- |
| CC(C)C/C=C/[C@@H](COS(=O)(=O)[O-])[C@H]1CC[C@H]2[C@@H]3CC[C@@H]4[C@H](O)[C@H](OS(=O)(=O)[O-])CC[C@]4(C)[C@H]3[C@@H](O)C[C@]12C.[Na+].[Na+] | 15% | Non-toxic | 75% | 68% | 36% | 31% | Non-toxic | 35% | 0% | 100% | 25% | 50% | 14% | 0% | 39% | 47% | 0% | 0% | Non-toxic | 0% |
| CC(C)CCC[C@@H](COS(=O)(=O)[O-])[C@H]1CC[C@H]2[C@@H]3CC[C@@H]4[C@H](O)[C@H](OS(=O)(=O)[O-])CC[C@]4(C)[C@H]3[C@@H](O)C[C@]12C.[Na+].[Na+] | 24% | Non-toxic | 25% | 30% | 28% | 26% | Non-toxic | 24% | 7% | 100% | 0% | 25% | 8% | 0% | 35% | 33% | 0% | 2% | Non-toxic | 0% |
| CC(C)/C=C/[C@@H](COS(=O)(=O)[O-])[C@H]1CC[C@H]2[C@@H]3CC[C@@H]4[C@H](O)[C@H](OS(=O)(=O)[O-])CC[C@]4(C)[C@H]3[C@@H](O)C[C@]12C.[Na+].[Na+] | 10% | Non-toxic | 75% | 65% | 29% | 21% | Non-toxic | 37% | 0% | 100% | 0% | 50% | 12% | 0% | 36% | 37% | 8% | 0% | Non-toxic | 0% |
| C=C(CC[C@@H](COS(=O)(=O)[O-])[C@H]1CC[C@H]2[C@@H]3CC[C@@H]4[C@H](O)[C@H](OS(=O)(=O)[O-])CC[C@]4(C)[C@H]3[C@@H](O)C[C@]12C)C(C)C.[Na+].[Na+] | 19% | Non-toxic | 50% | 31% | 38% | 33% | Non-toxic | 16% | 11% | 100% | 25% | 25% | 20% | 0% | 36% | 54% | 0% | 3% | Non-toxic | 0% |
